# Patent US4661297A, “Basic ethers of 7-oxo-7H-benzo(c) fluorene and a process for their production” (SPOFA, spojene podniky pro zdravotnickou vyrobu, priority 1980, dated 1987)
# Counter-ions that a name gives are not always drawn. Like-named read-outs stand apart in the source and are kept apart here.
# Legend:
# [1] = test system: Ehrlich's ascitic carcinoma; assay: Incorporation of 14C-adenine and 14C-valine into cellular fraction of Ehrlich's ascitic carcinoma in vitro; assay type: cell-based, mouse; settings: for Radioactivity incorporation, adenine: control 1060 cpm; for Radioactivity incorporation, valine: control 2455 cpm; for activity at 75 µM / activity at 150 µM / activity at 300 µM / activity at 600 µM / IC50 / activity at 37.5 µM: Mus musculus, Ehrlich; for IC50: in vitro
# Source text: In Table 4, the effect of Tiloron (NSC 143969; 2,7-bis-[2-(diethylamino)ethoxy]fluorene-9-one) and 5-(2-dimethylaminoethoxy)-7-oxo-7H-benzo(c) fluorene hydrochloride are compared on incorporation of ^14 C-adenine and ^14 C-valine with the cellular fraction of Ehrlich's ascitic carcinoma (insoluble in trichloacetic acid). The tests in vitro reveal that the composition of the invention was more than 10 times as effective as Tiloron. The inhibition of incorporation of adenine and valine into the used system of tumor cells is considered as an indication of an anti-tumorous, cytostatic action. This biological activity of the described compound is considerably greater than that of its congener Tiloron. (See also Table 4.)
# Effects of Tiloron and substance 13468 on incorporation of ^14
# C-adenine and ^14 C-valine
# into cellular fraction of Ehrlichs ascitic carcinoma, insoluble in
# in vitro. Radioactivity incorporation expressed in cpm.
# IC50 = concentration inhibiting incorporation by 50 percent.
# Yoshida's Tumor = assay: Inhibition of incorporation of labelled substrates in Yoshida's tumor; assay type: cell-based; settings: Rattus norvegicus, (U-14C) amino acid mixture, Table VI, read-out: IC50 (concentration lowering initial rate of 14C incorporation to 50% of control)
# Source text: Tumor growth may be observed clinically or in experiments in vivo, that is, with experimental animals, or in vitro, for example, in tissue cultures prepared from tumors. Assessment of tumor growth may be effected by measuring the weight of the tumor mass or, more effectively, by measuring the radioactivity after incorporation therein of certain substances of natural origin such as amino acids, adenine, thymidine and the like labelled with radioactive atoms such as ^14 C, ^3 H, etc.
# Thus, by way of exemplification, the IC^50 values (inhibitory concentration which lowered the initial rate of ^14 C incorporation to 50% of control) are shown in Table VI, below (Yoshida's Tumor, (U-^14 C) amino acid mixture)
# The ^IC 50 values of compound 13468 are also shown in Table VII with varying substrates.
# L1210 leukaemia = assay: Effect on course of transplanted L1210 leukaemia in mice; assay type: in vivo, mouse (hybrid DBA/H)
# Source text: (§1) The therapeutic effect of the described compounds on transplanted tumors in experimental animals is shown in Tables 1-3, on the following five pages.
# (§2) &=statistically significant differences versus control at P=0.05
# L1210 : Leukaemia growing in the form of ascitic tumors in hybrid DBA/H mice
# [2] = test system: Kr2: Krebs' ascitic tumor; assay: Effect on course of transplanted Krebs' ascitic tumor in mice; assay type: in vivo, mouse (H); settings: p.o. 2×150 mg/kg, days 1,8, significant (&)
# Source text: as §1, §2
# Kr2 : Krebs' ascitic tumor in H mice
# [3] = test system: HK: solid tumors, originally spontaneous mammary-gland adenocarcinoma; assay: Effect on course of transplanted HK solid mammary-gland adenocarcinoma in mice; assay type: in vivo, mouse (H); settings: for Relative tumour size (% of control value): assessed day 14
# Source text: as §1, §2
# HK: Solid tumors, originally spontaneous mammary-gland adenocarcinoma in H mice
# [4] = test system: EST: Ehrlich's solid tumor; assay: Effect on course of transplanted Ehrlich's solid tumor in mice; assay type: in vivo, mouse (H); settings: days 5,7,9,12; for Relative tumour size (% of control value): assessed day 14
# Source text: as §1, §2
# EST: Ehrlich's solid tumor in H mice
# Sa37 ascitic tumor = assay: Effect on course of transplanted Sa37 ascitic tumor in mice; assay type: in vivo, mouse (H); settings: p.o. 3×75 mg/kg, days 1,4,7
# Source text: as §1, §2
# Sa37 : Ascitic tumors in H mice
# La leukaemia = assay: Effect on course of transplanted La leukaemia in mice; assay type: in vivo, mouse (C57 Bl)
# Source text: as §1, §2
# La: La leukaemia in mice C57 Bl
# Yoshida's ascitic tumor = assay: Effect on course of transplanted Yoshida's ascitic tumor in rats; assay type: in vivo, rat (Wistar); settings: for % of animals surviving day 35 after transplantation: control K = 0%
# Source text: as §1, §2
# Y: Yoshida's ascitic tumor in Wistar rats
# Acute toxicity in mice = settings: mouse, in vivo, sc; subcutaneously; mice S, males 22-24 gram
# Source text: The anti-tumor compounds described herein have also been studied from the standpoint of toxicity and the conclusion drawn that they are not toxic to mammalian hosts. The toxicological data set forth in Table IX, below, supports this conclusion.
# [5] = p.o. 2×150 mg/kg, days 5,12, significant (&)
# [6] = p.o. 4×100 mg/kg, days 5,7,9,12, significant (&)
# [7] = p.o. 4×100 mg/kg, significant (&)
# [8] = o. (oral) 3×50 mg/kg, days 1,4,8, significant (&)
# [9] = o. (oral) 3×75 mg/kg, days 1,4,8, significant (&)
# [10] = o. (oral) 5×100 mg/kg, days 1-5, Tables I and II, significant (&)
# [11] = s.c. 5×50 mg/kg, days 1-5, Tables I and II, significant (&)
structure (smiles),measurement,setting,value
"CCN(CC)CCOc1ccc2c(c1)C(=O)c1cc(OCCN(CC)CC)ccc1-2 [Tiloron, 2,7-bis-[2-(diethylamino)ethoxy]fluorene-9-one]","Radioactivity incorporation, adenine",[1]; 75 μM,1252 cpm
same,"Radioactivity incorporation, valine",[1]; 75 μM,2374 cpm
same,"Radioactivity incorporation, adenine",[1]; 150 μM,1096 cpm
same,"Radioactivity incorporation, valine",[1]; 150 μM,2247 cpm
same,"Radioactivity incorporation, adenine",[1]; 300 μM,979 cpm
same,"Radioactivity incorporation, valine",[1]; 300 μM,2443 cpm
same,"Radioactivity incorporation, adenine",[1]; 600 μM,563 cpm
same,"Radioactivity incorporation, valine",[1]; 600 μM,1944 cpm
same,"Radioactivity incorporation, adenine","[1]; 37,5 μM",1160 cpm
same,"Radioactivity incorporation, valine","[1]; 37,5 μM",2395 cpm
same,activity at 75 µM,"[1]; 75 μM, read-out: Incorporation of adenine relative to control (0 μM = 100%)",118%
same,activity at 75 µM,"[1]; 75 μM, read-out: Incorporation of valine relative to control (0 μM = 100%)",97%
same,activity at 150 µM,"[1]; 150 μM, read-out: Incorporation of adenine relative to control (0 μM = 100%)",103%
same,activity at 150 µM,"[1]; 150 μM, read-out: Incorporation of valine relative to control (0 μM = 100%)",92%
same,activity at 300 µM,"[1]; 300 μM, read-out: Incorporation of adenine relative to control (0 μM = 100%)",92%
same,activity at 300 µM,"[1]; 300 μM, read-out: Incorporation of valine relative to control (0 μM = 100%)",100%
same,activity at 600 µM,"[1]; 600 μM, read-out: Incorporation of adenine relative to control (0 μM = 100%)",53%
same,activity at 600 µM,"[1]; 600 μM, read-out: Incorporation of valine relative to control (0 μM = 100%)",79%
same,IC50,"[1]; 14C-adenine, read-out: IC50 (concentration inhibiting incorporation by 50 percent), adenine",600 µM
same,IC50,"[1]; 14C-valine, read-out: IC50 (concentration inhibiting incorporation by 50 percent), valine",600 µM
same,activity at 37.5 µM,"[1]; 37,5 μM, read-out: Incorporation of adenine relative to control (0 μM = 100%)",109%
same,activity at 37.5 µM,"[1]; 37,5 μM, read-out: Incorporation of valine relative to control (0 μM = 100%)",98%
same,IC50,Yoshida's Tumor,154 µM
"CN(C)CCCOc1cc2c(c3ccccc13)-c1ccccc1C2=O.Cl [compound 13466, 5-(3-Dimethylaminopropoxy)-7-oxo-7H-benzo(c) fluorene hydrochloride]",Survival time of animals with respect to median,"L1210 leukaemia; s.c. 6×50 mg/kg, days 1;5;8;12;15;19, significant (&)",117%
same,Survival time of animals with respect to median,"L1210 leukaemia; s.c. 6×75 mg/kg, days 1;5;8;12;15;19, significant (&)",142%
same,Survival time of animals with respect to median,"L1210 leukaemia; s.c. 6×100 mg/kg, days 1;5;8;12;15;19, significant (&)",142%
same,Survival time of animals with respect to median,"L1210 leukaemia; s.c. 6×125 mg/kg, days 1;5;8;12;15;19, marked ^",168%
same,Relative tumour size (% of control value),[2]; assessed day 10,62%
same,Survival time of animals with respect to geom. mean,[2],128%
same,IC50,Yoshida's Tumor,120 µM
same,Survival time of animals with respect to geom. mean,"[3]; o. (oral) 8×50 mg/kg, days 5-10,12,13, Table I, significant (&)",131%
same,Relative tumour size (% of control value),"[3]; o. (oral) 8×50 mg/kg, days 5-10,12,13, Table I",82%
same,Relative tumour size (% of control value),"[3]; o. (oral) 8×100 mg/kg, days 5-10,12,13",76%
same,Survival time of animals with respect to geom. mean,"[3]; o. (oral) 8×100 mg/kg, days 5-10,12,13, significant (&)",112%
same,Relative tumour size (% of control value),[3]; [5],65%
same,Survival time of animals with respect to geom. mean,[3]; [5],123%
same,Relative tumour size (% of control value),[3]; [6],48%
same,Survival time of animals with respect to geom. mean,[3]; [6],125%
same,Survival time of animals with respect to geom. mean,"[3]; p.o. 8×50 mg/kg, days 5-10,12,13, Table III, marked ^",102%
same,Relative tumour size (% of control value),"[3]; p.o. 8×50 mg/kg, days 5-10,12,13, Table III, significant (&)",73%
same,Survival time of animals with respect to geom. mean,"[3]; s.c. 8×50 mg/kg, days 5-10,12,13, Table I, significant (&)",121%
same,Survival time of animals with respect to geom. mean,"[3]; s.c. 8×50 mg/kg, days 5-10,12,13, Table III, marked ^",107%
same,Relative tumour size (% of control value),"[3]; s.c. 8×50 mg/kg, days 5-10,12,13, Table I",66%
same,Relative tumour size (% of control value),"[3]; s.c. 8×50 mg/kg, days 5-10,12,13, Table III, significant (&)",58%
same,Relative tumour size (% of control value),"[4]; p.o. 4×50 mg/kg, marked ^",77%
same,Survival time of animals with respect to geom. mean,"[4]; p.o. 4×50 mg/kg, significant (&)",135%
same,Relative tumour size (% of control value),[4]; [7],70%
same,Survival time of animals with respect to geom. mean,[4]; [7],134%
same,Relative tumour size (% of control value),"Sa37 ascitic tumor; assessed day 10, marked ^",92%
same,Survival time of animals with respect to geom. mean,Sa37 ascitic tumor; significant (&),123%
same,Survival time of animals with respect to median,"La leukaemia; s.c. 1×200 mg/kg, day 3 after transplantation, significant vs control (&, P=0.05)",113%
same,Survival time of animals with respect to median,"La leukaemia; s.c. 1×250 mg/kg, day 3, significant (&)",500%
same,% of animals surviving day 35 after transplantation,Yoshida's ascitic tumor; [8],50%
same,Survival time of animals with respect to geom. mean,Yoshida's ascitic tumor; [8],152%
same,% of animals surviving day 35 after transplantation,Yoshida's ascitic tumor; [9],40%
same,Survival time of animals with respect to geom. mean,Yoshida's ascitic tumor; [9],140%
same,Survival time of animals with respect to geom. mean,"Yoshida's ascitic tumor; o. (oral) 5×100 mg/kg, days 1-5, Table III, significant (&)",135%
same,Survival time of animals with respect to geom. mean,Yoshida's ascitic tumor; [10],135%
same,Survival time of animals with respect to geom. mean,"Yoshida's ascitic tumor; s.c. 5×50 mg/kg, days 1-5, Table III, marked ^",103%
same,Survival time of animals with respect to geom. mean,Yoshida's ascitic tumor; [11],177%
same,LD50,Acute toxicity in mice,320 mg/kg
"CN(C)CC(C)(C)COc1cc2c(c3ccccc13)-c1ccccc1C2=O [compound 13467, hydrochloride]",Survival time of animals with respect to median,"L1210 leukaemia; s.c. 1×250 mg/kg, day 1, significant (&)",135%
same,IC50,Yoshida's Tumor,101 µM
same,Survival time of animals with respect to geom. mean,"[3]; s.c. 8×25 mg/kg, days 5-10,12,13",89%
same,Relative tumour size (% of control value),"[3]; s.c. 8×25 mg/kg, days 5-10,12,13, significant (&)",45%
same,Survival time of animals with respect to median,"La leukaemia; s.c. 1×300 mg/kg, day 3, significant (&)",186%
same,Survival time of animals with respect to geom. mean,Yoshida's ascitic tumor; [10],256%
same,Survival time of animals with respect to geom. mean,Yoshida's ascitic tumor; [11],232%
same,LD50,Acute toxicity in mice,550 mg/kg
